Laboratory results as given in patent US20130065818A1, “Arylamide Compounds And Compositions And Uses Thereof” (POLYMEDIX, priority 2006, published 2013).
≈ marks a conversion by molar mass, not a printed value. Where “and” joins values, the source holds several entries; their conditions need not be identical. Equal values may be shown once. Entries after “also recorded” stand apart in the source; their conditions may differ.

Tests used:
[1] = Draize ocular toxicity scoring, NZW rabbit ocular toxicity model; type: in vivo; parameters: key to MMTS / Score (Draize total): Draize total score of cornea, iris and conjunctivae; maximum 110; III. B. Chemosis / I. A. Cornea opacity / I. B. Area of cornea involved / II. A. Iris / III. A. Conjunctivae redness / III. C. Discharge: scale not given here
Protocol: The ocular toxicity of several concentrations of Oligomer 2, using the Draize ocular toxicity scoring system, in the NZW rabbit ocular toxicity model was carried out.
Rabbits were treated in both eyes with (37 μl) topical drops every 30 minutes for 3 hours (7 total doses). One rabbit was treated with Tris-Buffered Saline and served as a negative control. Rabbits were evaluated in a masked fashion for ocular toxicity by an ophthalmologist with specialty training in corneal and external disease. Ocular toxicity was evaluated using the Draize scoring system after treatment on Day 0 and on Day 3 post treatment for any delayed toxicity. (Draize et al., J. Pharmacol. Exp. Ther., 1944, 82, 377-390).
A brief summary of the Draize scoring system for ocular lesions is provided below
Total Maximum Score: 110 represents the sum of all scores obtained for the cornea, iris and conjunctivae.
The ocular toxicity of several formulations of Oligomer 4 with and without farnesol, using the Draize ocular toxicity scoring system, in the NZW rabbit ocular toxicity model was carried out.
Rabbits were treated in both eyes with (37 μl) topical drops every 30 minutes for 3 hours (7 total doses). One rabbit was treated with Tris-Buffered Saline and served as a negative control. Rabbits were evaluated in a masked fashion for ocular toxicity by an ophthalmologist with specialty training in corneal and external disease 30 minutes after the final dose. Ocular toxicity was evaluated using the Draize scoring system (see above) after treatment on Day 0 and on Day 2 post treatment for any delayed toxicity.

[2] = test system: fluoroquinolone-resistant, methicillin-resistant Staphylococcus aureus (K950); assay: NZW rabbit keratitis model, corneal colony counts; type: in vivo; conditions: for Log10 CFU/ml, Median / Log10 CFU/ml Maximum / Log10 CFU/ml Minimum / Log10 CFU/ml, Mean: 6 corneas; for Mean Rank, Kruskal-Wallis ANOVA with Duncan Multiple Comparisons Test - Log10 CFU/ml / Statistical comparison of colony counts between groups (< = significantly fewer colony counts): P = 0.05; for Log10 CFU/ml Maximum / Log10 CFU/ml Minimum / Log10 CFU/ml, Mean: Descriptive Statistics; for Reduction of colony counts compared with the Saline Control: corneal epithelium intact or removed; for Log10 CFU/ml: individual corneas (Row 1-6; K-3, K-4); for CFU/ml: individual corneas (Row 1-6; Ker-3, Ker-4)
Excerpt: One purpose of the following experiments was to compare the efficacy of 1% Oligomer 2, 0.5% Oligomer 2, and 5% vancomycin in the treatment of a fluoroquinolone-resistant, methicillin-resistant Staphylococcus aureus infection in the NZW rabbit keratitis model with or without intact corneal epithelia.
Nothing was done to the right eyes.
One purpose of the following experiments was to compare the efficacy of 0.25% Oligomer 2, with and without 0.005% benzalkonium chloride, and 5% vancomycin in the treatment of a fluoroquinolone-resistant, methicillin-resistant Staphylococcus aureus infection in the NZW rabbit keratitis model with or without intact corneal epithelia. The 0.005% benzalkonium chloride has been added to try to increase the penetration of 0.25% Oligomer 2 through the corneal epithelium.
One purpose of the following experiments was to determine the efficacy of 0.25% Oligomer 4, with and without 200 μM Farnesol, and 200 μM Farnesol in the treatment of a fluoroquinolone-resistant and methicillin-resistant Staphylococcus aureus infection in the NZW rabbit keratitis model with or without intact corneal epithelia. The 200 μM Farnesol has been added to try to increase the efficacy and penetration of 0.25% Oligomer 4 through the corneal epithelium.

P. aeruginosa ATCC 10145 = assay: MIC, laboratory strains (Example 8); type: cell-based
[3] = test system: K. pneumoniae Lab Strain KP10; assay: MIC, laboratory strains (Example 8); type: cell-based
[4] = 100 μM Farnesol in 1% PG and TBS, Day 0
[5] = 100 μM Farnesol in 1% PG and TBS, Day 0, per eye
[6] = 100 μM Farnesol in 1% PG and TBS, Day 2
[7] = 100 μM Farnesol in 1% PG and TBS, Day 2, per eye
[8] = 100 μM in 1% Propylene Glycol (PG) and TBS, Day 0
[9] = 100 μM in 1% Propylene Glycol (PG) and TBS, Day 2
[10] = 200 μM Farnesol in 1% PG and TBS, Day 0
[11] = 200 μM Farnesol in 1% PG and TBS, Day 0, per eye
[12] = 200 μM Farnesol in 1% PG and TBS, Day 2
[13] = 200 μM Farnesol in 1% PG and TBS, Day 2, per eye
[14] = 200 μM in 1% Propylene Glycol (PG) and TBS, Day 0
[15] = 200 μM in 1% Propylene Glycol (PG) and TBS, Day 2

CC(C)=CCCC(C)=CCCC(C)=CCO [Farnesol]
Classification of eye irritation [1, 4]: Non-Irritating
MMTS [1, 4]: 0.0
MMTS classification symbol [1, 4]: N (0.0-0.5 Non-Irritating)
I. A. Cornea opacity [1, 5]: 0
I. B. Area of cornea involved [1, 5]: 0
I. Tot (cornea, A × B × 5) [1, 5]: 0
II. A. Iris [1, 5]: 0
II. Tot (iris, A × 5) [1, 5]: 0
III. A. Conjunctivae redness [1, 5]: 0
III. B. Chemosis [1, 5]: 0
III. C. Discharge [1, 5]: 0
III. Tot (conjunctivae, (A + B + C) × 2) [1, 5]: 0
Score (Draize total) [1, 5]: 0
MMTS [1, 6]: 1.5
MMTS classification symbol [1, 6]: PN (0.6-2.5 Practically Non-Irritating)
I. A. Cornea opacity [1, 7]: 0
I. B. Area of cornea involved [1, 7]: 0
I. Tot (cornea, A × B × 5) [1, 7]: 0
II. A. Iris [1, 7]: 0
II. Tot (iris, A × 5) [1, 7]: 0
III. A. Conjunctivae redness [1, 7]: 0
III. B. Chemosis [1, 7]: 0
MMTS [1, 8]: 0.0
MMTS classification [1, 8]: N (0.0-0.5 Non-Irritating)
MMTS [1, 9]: 1.5
MMTS classification [1, 9]: PN (0.6-2.5 Practically Non-Irritating)
Classification of eye irritation [1, 10]: Non-Irritating
MMTS [1, 10]: 0.5
MMTS classification symbol [1, 10]: N (0.0-0.5 Non-Irritating)
I. A. Cornea opacity [1, 11]: 0
I. B. Area of cornea involved [1, 11]: 0
I. Tot (cornea, A × B × 5) [1, 11]: 0
II. A. Iris [1, 11]: 0
II. Tot (iris, A × 5) [1, 11]: 0
III. A. Conjunctivae redness [1, 11]: 0
III. B. Chemosis [1, 11]: 0
Classification of eye irritation [1, 12]: Non-Irritating
MMTS [1, 12]: 0.5
MMTS classification symbol [1, 12]: N (0.0-0.5 Non-Irritating)
I. A. Cornea opacity [1, 13]: 0
I. B. Area of cornea involved [1, 13]: 0
I. Tot (cornea, A × B × 5) [1, 13]: 0
II. A. Iris [1, 13]: 0
II. Tot (iris, A × 5) [1, 13]: 0
III. A. Conjunctivae redness [1, 13]: 0
III. B. Chemosis [1, 13]: 0
MMTS [1, 14]: 0.5
MMTS classification [1, 14]: N (0.0-0.5 Non-Irritating)
MMTS [1, 15]: 0.5
MMTS classification [1, 15]: N (0.0-0.5 Non-Irritating)
Log10 CFU/ml, Median ([2]; Abraded Epithelium): 6.849 Log10 CFU/ml and 6.8489 Log10 CFU/ml
Log10 CFU/ml, Median ([2]; Intact Epithelium): 7.3000 Log10 CFU/ml
Mean Rank, Kruskal-Wallis ANOVA with Duncan Multiple Comparisons Test - Log10 CFU/ml ([2]; Abraded Epithelium): 23.5000
Statistical comparison of colony counts between groups (< = significantly fewer colony counts) ([2]; Abraded Epithelium): PMX = P + F < ONSET < FARN = CON
Effect of Abraded Epithelium on Effectiveness of Each Test Solution (colony counts, < = significantly fewer) ([2]; Abraded vs. Intact Epithelium, Mann-Whitney Test): FARN-AE < FARN-IE; also recorded: Abraded < Intact
Log10 CFU/ml Maximum ([2]; Abraded Epithelium): 6.916 Log10 CFU/ml
Log10 CFU/ml Minimum ([2]; Abraded Epithelium): 6.109 Log10 CFU/ml
Log10 CFU/ml, Mean ([2]; Abraded Epithelium): 6.626 Log10 CFU/ml
Log10 CFU/ml Maximum ([2]; Intact Epithelium): 7.6551 Log10 CFU/ml
Log10 CFU/ml Minimum ([2]; Intact Epithelium): 7.1818 Log10 CFU/ml
Log10 CFU/ml, Mean ([2]; Intact Epithelium): 7.3624 Log10 CFU/ml
Effect of Abraded Epithelium on Effectiveness of Each Test Solution (colony counts, abraded vs. intact) ([2]; Example 11, Mann-Whitney test, < = significantly fewer colony counts): Abraded = Intact
Point estimate for ETA1-ETA2 (Mann-Whitney, Log10 CFU/ml), Intact minus Abraded Epithelium ([2]; IE Log vs AE Log of the same test solution): Point estimate for ETA1-ETA2 is 0.5964
Mean Rank, Kruskal-Wallis ANOVA with Duncan Multiple Comparisons Test - Log10 CFU/ml ([2]; Intact Epithelium): 22.1667
Statistical comparison of colony counts between groups (< = significantly fewer colony counts) ([2]; Intact Epithelium): ONSET = PMX = P + F < FARN = CON
Statistical comparison of corneal colony counts (< = significantly fewer colony counts) ([2]; Ker-3 (Example 11), abraded epithelium, 21 doses): PMX═P+F═ONSET<FARN═CON
Statistical comparison of corneal colony counts (< = significantly fewer colony counts) ([2]; Ker-3 (Example 11), intact epithelium, 21 doses): ONSET=PMX═P+F<FARN═CON
Reduction of colony counts compared with the Saline Control ([2]; Ker-3): NOT effective
Colony counts, corneal epithelium removed compared with intact epithelium ([2]; Ker-4): significantly fewer colony counts in eyes with the corneal epithelium removed
Statistical comparison of corneal colony counts (< = significantly fewer colony counts) ([2]; Ker-4 (Example 12), abraded epithelium): PMX═P+F<ONSET<FARN═CON
Statistical comparison of corneal colony counts (< = significantly fewer colony counts) ([2]; Ker-4 (Example 12), intact epithelium): ONSET=PMX═P+F<FARN═CON
Reduction of colony counts compared with the Saline Control ([2]; Ker-4): not effective
Log10 CFU/ml ([2]; Abraded Epithelium): 6.875 Log10 CFU/ml and 6.109 Log10 CFU/ml and 6.146 Log10 CFU/ml and 6.889 Log10 CFU/ml and 6.823 Log10 CFU/ml and 6.916 Log10 CFU/ml
Log10 CFU/ml ([2]; Intact Epithelium): 7.182 Log10 CFU/ml and 7.259 Log10 CFU/ml and 7.479 Log10 CFU/ml and 7.655 Log10 CFU/ml and 7.27 Log10 CFU/ml and 7.33 Log10 CFU/ml
CFU/ml ([2]; Abraded Epithelium): 7500000 CFU/ml and 1285000 CFU/ml and 1400000 CFU/ml and 7750000 CFU/ml and 6650000 CFU/ml and 8250000 CFU/ml
CFU/ml ([2]; Intact Epithelium): 15200000 CFU/ml and 18150000 CFU/ml and 30100000 CFU/ml and 45200000 CFU/ml and 18600000 CFU/ml and 21400000 CFU/ml

N=C(N)NCCCCC(=O)Nc1cc(C(F)(F)F)cc(NC(=O)c2cc(C(=O)Nc3cc(C(F)(F)F)cc(NC(=O)CCCCNC(=N)N)c3SCCN)ncn2)c1SCCN [Oligomer 2]
I. A. Cornea opacity ([1]; NZW, rabbit, in vivo, 0 day): 0
I. B. Area of cornea involved ([1]; NZW, rabbit, in vivo, 0 day): 0
I. Tot (cornea, A × B × 5) ([1]; NZW, rabbit, in vivo, 0 day): 0
I. A. Cornea opacity ([1]; NZW, rabbit, in vivo, 3 day): 0
I. B. Area of cornea involved ([1]; NZW, rabbit, in vivo, 3 day): 0
I. Tot (cornea, A × B × 5) ([1]; NZW, rabbit, in vivo, 3 day): 0
II. A. Iris ([1]; NZW, rabbit, in vivo, 3 day): 0
II. Tot (iris, A × 5) ([1]; NZW, rabbit, in vivo, 3 day): 0
III. A. Conjunctivae redness ([1]; NZW, rabbit, in vivo, 3 day): 0
III. B. Chemosis ([1]; NZW, rabbit, in vivo, 3 day): 0
III. C. Discharge ([1]; NZW, rabbit, in vivo, 3 day): 0
III. Tot (conjunctivae, (A + B + C) × 2) ([1]; NZW, rabbit, in vivo, 3 day): 0
Score (Draize total) ([1]; NZW, rabbit, in vivo, 3 day): 0
Dose dependence of ocular toxicity ([1]; rabbit, in vivo): dose dependent ocular toxicity
Stinging / acute reactions upon instillation ([1]; rabbit, in vivo): does not sting upon instillation
Statistical comparison of corneal colony counts (< = significantly fewer colony counts) ([2]; Ker-1 (Example 9), abraded (removed) epithelium, drops every 15 min, 19 doses): effective
Statistical comparison of corneal colony counts (< = significantly fewer colony counts) ([2]; Ker-2 (Example 10), abraded (removed) epithelium, drops every 15 min, 21 doses): effective
Effect of addition of 0.005% benzalkonium chloride (BAK) on penetration through the intact corneal epithelium ([2]; Ker-2, 0.25% Oligomer 2): did not aid in the penetration
Penetration of the corneal epithelium into the corneal stroma ([2]; in vivo): does not penetrate the corneal epithelium

N=C(N)NCCCCC(=O)Nc1cc(C(F)(F)F)cc(NC(=O)c2cnc(C(=O)Nc3cc(C(F)(F)F)cc(NC(=O)CCCCNC(=N)N)c3SCCN)cn2)c1SCCN [Oligomer 5]
MIC (P. aeruginosa ATCC 10145): > 100 µg/mL
MIC [3]: 1.56 µg/mL (≈ 1.7 µM)
